How the values were obtained:
GCN2 kinase = GCN2 kinase (Homo sapiens (Human), UniProt Q9P2K8); test: GCN2 Enzyme Inhibition Assay (Transcreener ADP2 fluorescence polarization); format: biochemical; settings: 280 μM ATP, 200 μM (RS)7 peptide, 4 nM GCN2, 25° C.
Method in brief: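 Transcreener ADP2 fluorescence polarization detection of ADP from 4 nM GCN2 with (RS)7 substrate in 25 mM Tris-HCl pH 7.5, 50 mM NaCl, 10 mM MgCl2, 1 mM DTT. Compound pre-incubated with enzyme 10 min at 25 °C; reaction started by ATP, run 1 h at 25 °C. IC50 and Ki(app) by tight-binding fit.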

[1] = target: intracellular GCN2 (phosphorylation of the GCN2 substrate eIF2α) (Homo sapiens (Human), UniProt Q9P2K8); test: GCN2 Cellular Inhibition Assay (AlphaScreen SureFire P-eIF2α Ser51, borrelidin-treated U2OS cells); format: cell-based; settings: 10 μM borrelidin, 1 h, phosphorylated eIF2α Ser51, read-out: GCN2 Biomarker (IC50)
Chain of intracellular GCN2 (phosphorylation of the GCN2 substrate eIF2α) (Q9P2K8 whole entry): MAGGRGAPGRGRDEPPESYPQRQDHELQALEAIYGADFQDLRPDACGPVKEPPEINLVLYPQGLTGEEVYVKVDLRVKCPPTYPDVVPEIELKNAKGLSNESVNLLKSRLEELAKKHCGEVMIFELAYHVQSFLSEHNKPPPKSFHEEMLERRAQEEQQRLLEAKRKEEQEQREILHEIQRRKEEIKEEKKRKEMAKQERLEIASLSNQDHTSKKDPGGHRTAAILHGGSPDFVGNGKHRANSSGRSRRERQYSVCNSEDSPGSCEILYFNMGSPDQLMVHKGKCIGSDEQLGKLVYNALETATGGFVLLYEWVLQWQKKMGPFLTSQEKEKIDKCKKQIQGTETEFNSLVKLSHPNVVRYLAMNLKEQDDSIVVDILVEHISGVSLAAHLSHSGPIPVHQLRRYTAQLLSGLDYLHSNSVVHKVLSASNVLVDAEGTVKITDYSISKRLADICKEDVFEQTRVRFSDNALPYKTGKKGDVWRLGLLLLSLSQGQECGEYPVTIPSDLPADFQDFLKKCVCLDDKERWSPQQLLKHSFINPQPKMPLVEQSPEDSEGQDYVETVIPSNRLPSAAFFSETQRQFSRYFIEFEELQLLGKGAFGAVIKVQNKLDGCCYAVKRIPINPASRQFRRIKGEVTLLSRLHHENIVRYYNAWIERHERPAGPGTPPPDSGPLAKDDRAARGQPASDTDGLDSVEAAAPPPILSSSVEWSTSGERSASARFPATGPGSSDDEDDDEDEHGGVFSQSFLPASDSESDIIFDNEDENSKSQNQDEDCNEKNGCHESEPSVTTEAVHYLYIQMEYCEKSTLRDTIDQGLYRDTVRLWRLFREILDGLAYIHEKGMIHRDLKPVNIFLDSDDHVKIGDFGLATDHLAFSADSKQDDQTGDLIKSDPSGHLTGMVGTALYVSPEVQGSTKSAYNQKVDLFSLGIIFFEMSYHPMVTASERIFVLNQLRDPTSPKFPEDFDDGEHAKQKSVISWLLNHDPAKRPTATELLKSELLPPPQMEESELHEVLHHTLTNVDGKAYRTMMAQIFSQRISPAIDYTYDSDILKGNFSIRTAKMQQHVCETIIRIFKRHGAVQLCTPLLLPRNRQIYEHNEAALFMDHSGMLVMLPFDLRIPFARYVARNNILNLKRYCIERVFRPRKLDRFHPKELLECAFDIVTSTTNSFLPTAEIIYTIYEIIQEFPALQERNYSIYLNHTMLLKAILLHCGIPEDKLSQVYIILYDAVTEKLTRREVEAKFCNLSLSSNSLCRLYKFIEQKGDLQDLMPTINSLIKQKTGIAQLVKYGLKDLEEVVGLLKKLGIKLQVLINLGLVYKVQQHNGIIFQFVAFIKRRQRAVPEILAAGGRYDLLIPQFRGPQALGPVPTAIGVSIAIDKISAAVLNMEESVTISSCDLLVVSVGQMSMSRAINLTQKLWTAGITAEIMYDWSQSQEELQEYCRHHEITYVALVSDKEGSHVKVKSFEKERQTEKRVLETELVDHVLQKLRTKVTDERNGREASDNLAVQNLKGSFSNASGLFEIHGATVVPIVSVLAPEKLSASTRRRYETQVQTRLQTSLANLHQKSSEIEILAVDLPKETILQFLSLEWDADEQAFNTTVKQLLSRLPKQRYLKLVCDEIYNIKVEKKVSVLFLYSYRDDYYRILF
Method in brief: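 U2OS cells adhered overnight, then given compound (top 40 μM, 4-fold serial dilutions) plus 10 μM borrelidin for 1 h at 37 °C. Lysates assayed for eIF2α phospho-Ser51 by AlphaScreen SureFire; % inhibition versus borrelidin-only wells.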

[2] = tested on: primary human pan T-cells; test: Human IL-2 Assay for GCN2 Inhibition (IL-2 secretion from T cells in low amino acid condition); format: cell-based; settings: IL-2 secretion from human T cells stimulated with anti-CD3/CD28 in low amino acid condition, ELISA; for EC50: Homo sapiens, T-cell, 96 h, read-out: IL2/T-cell EC50
Method in brief: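 Pan T-cells (5×10^4/well) in RPMI lacking one amino acid (e.g. Trp, Arg) with 10% charcoal-stripped FBS; that amino acid titrated from none to 20 μM Trp or 950 μM Arg. Compound given 30 min at 37 °C before anti-CD3/CD28 bead stimulation; supernatant IL-2 by ELISA after 96 h; EC50 calculated.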

Chain of GCN2 kinase (Q9P2K8 whole entry): as above

SMILES	IC50 (GCN2 kinase)	IC50 [1]	IL2/T-cell EC50 ([2]; 96 hours)	EC50 [2]
Cc1[nH]ncc1[C@@H]1C[C@H](O)CN(c2ccnc(-c3cnc4ccc(C(F)(F)F)cn34)n2)C1 [I-314, (3 S,5S)-5-(3-Methyl-1H-pyrazol-4-yl)-1-[2-(6-trifluoromethyl-imidazo[1,2-a]pyridin-3-yl)-pyrimidin-4-yl]-piperidin-3-ol]	< 10 nM	< 500 nM	− (“−” for not active)	
Cc1[nH]ncc1[C@H]1C[C@@H](O)CN(c2ccnc(-c3cnc4ccc(C(F)(F)F)cn34)n2)C1 [I-315, (3R,5R)-5-(3-Methyl-1H-pyrazol-4-yl)-1-[2-(6-trifluoromethyl-imidazo[1,2-a]pyridin-3-yl)-pyrimidin-4-yl]-piperidin-3-ol]	< 10 nM	< 500 nM		100 to 500 nM
FC(F)(F)c1ccc2ncc(-c3nccc(N4CCN(CC5CCOCC5)C(c5cn[nH]c5)C4)n3)n2c1 (stereo not drawn) [I-354, 3-(4-(3-(1H-pyrazol-4-yl)-4-((tetrahydro-2H-pyran-4-yl)methyl)piperazin-1-yl)pyrimidin-2-yl)-6-(trifluoromethyl)imidazo[1,2-a]pyridine]	< 10 nM	< 500 nM		100 to 500 nM
Cc1[nH]ncc1[C@H]1[C@@H](C)N(c2ccnc(-c3cnc4ccc(C(F)(F)F)cn34)n2)CCN1C1COC1 [I-366]	< 10 nM	< 500 nM		< 100 nM
Cc1n[nH]nc1[C@@H]1C[C@H](C)CN(c2ccnc(-c3cnc4ccc(C(F)(F)F)cn34)n2)C1 [I-409, 3-(4-((3S,5R)-3-methyl-5-(5-methyl-2H-1,2,3-triazol-4-yl)piperidin-1-yl)pyrimidin-2-yl)-6-(trifluoromethyl)imidazo[1,2-a]pyridine]	10 to 100 nM	< 500 nM		> 500 nM
CC1CC1CN1CCN(c2ccnc(-c3cnc4ccc(C(F)(F)F)cn34)n2)CC1c1cn[nH]c1 (stereo not drawn) [I-473, 3-(4-(4-((2-methylcyclopropyl)methyl)-3-(1H-pyrazol-4-yl)piperazin-1-yl)pyrimidin-2-yl)-6-(trifluoromethyl)imidazo[1,2-a]pyridine]	< 10 nM	< 500 nM		100 to 500 nM
CS(=O)(=O)C1CC(N2CCN(c3ccnc(-c4cnc5ccc(C(F)(F)F)cn45)n3)C[C@@H]2c2cn[nH]c2)C1 (stereo partly drawn) [I-495, 3-{4-[(S)-4-(3-Methanesulfonyl-cyclobutyl)-3-(1H-pyrazol-4-yl)-piperazin-1-yl]-pyrimidin-2-yl}-6-trifluoromethyl-imidazo[1,2-a]pyridine]	< 10 nM	< 500 nM		> 500 nM
C[C@@H]1C[C@H](N=S(C)(C)=O)CN(c2nccc(-c3cnc4ccc(C(F)F)cn34)n2)C1 [I-499, (((3 S,5R)-1-(4-(6-(difluoromethyl)imidazo[1,2-a]pyridin-3-yl)pyrimidin-2-yl)-5-methylpiperidin-3-yl)imino)dimethyl-λ6-sulfanone]	< 10 nM	< 500 nM		> 500 nM

Other lines, results leading:

IC50 (GCN2 kinase)	IC50 [1]	IL2/T-cell EC50 ([2]; 96 hours)	EC50 [2]	SMILES
< 10 nM	500 to 5000 nM		> 500 nM	NC(=O)[C@H]1CN(c2ccnc(-c3cnc4ccc(C(F)(F)F)cn34)n2)CCN1C1CC1 [I-323, (R)-1-cyclopropyl-4-(2-(6-(trifluoromethyl)imidazo[1,2-a]pyridin-3-yl)pyrimidin-4-yl)piperazine-2-carboxamide]
< 10 nM	< 500 nM		100 to 500 nM	Cc1n[nH]cc1[C@@H]1CN(c2ccnc(-c3cnc4cc(Cl)c(C(F)(F)F)cn34)n2)C[C@H](C)O1 [I-359, (2S,6R)-4-(2-(7-chloro-6-(trifluoromethyl)imidazo[1,2-a]pyridin-3-yl)pyrimidin-4-yl)-2-methyl-6-(3-methyl-1H-pyrazol-4-yl)morpholine]
< 10 nM	< 500 nM		< 100 nM	C[C@H]1[C@@H](c2cn[nH]c2)N(CC2(C)COC2)CCN1c1ccnc(-c2cnc3ccc(C(F)(F)F)cn23)n1 [I-481, 3-(4-((2 S,3R)-2-methyl-4-((3-methyloxetan-3-yl)methyl)-3-(1H-pyrazol-4-yl)piperazin-1-yl)pyrimidin-2-yl)-6-(trifluoromethyl)imidazo[1,2-a]pyridine]
< 10 nM	< 500 nM		100 to 500 nM	FC(F)(F)c1ccc2ncc(-c3nccc(N4CCN(C5CC6(COC6)C5)[C@H](c5cn[nH]c5)C4)n3)n2c1 [I-504, (R)-3-(4-(3-(1H-pyrazol-4-yl)-4-(2-oxaspiro[3.3]heptan-6-yl)piperazin-1-yl)pyrimidin-2-yl)-6-(trifluoromethyl)imidazo[1,2-a]pyridine]

From patent US10793563B2, “GCN2 inhibitors and uses thereof” (Merck Patent GmbH, priority 2018, dated 2020)
